According to article PMC11904993, “Humanized Candida and NanoBiT Assays Expedite Discovery of Bdf1 Bromodomain Inhibitors With Antifungal Potential” (Advanced Science, 2025):
Where “and” joins values, the source holds several entries; their conditions need not be identical. Equal values may be shown once.

How the values were obtained:
[1] = system: IMR90 (primary fibroblast) cells; conditions: highest concentration tested (300 µM); 24 h
Method: Cytotoxicity assays were performed as described^[ [1] ^] with minor changes. Proliferation of human cells was assessed using an MTT colorimetric assay (Cell Proliferation Kit I, Roche). HeLa (epithelial cells, ATCC number CCL‐2) and IMR90 (primary fibroblasts cells, ATCC number CCL‐186) cells were cultured in humidified atmosphere (37 °C and 5% CO2) in DMEM medium containing 10% heat inactivated fetal calf serum and 2 mM glutamine. […] Plates were incubated at 37 °C and 5% CO2 for 24 h before adding 10 mL of MTT labelling reagent (final concentration 0.5 mg mL^−1) to each well. After incubating for a further 4 h, 100 µL of the solubilization solution were added in each well. Plates were allowed to stand overnight in the incubator before measuring the absorbance at 570 nm and at 690 nm in a ClarioStar plate reader. The values of A570–A690 nm were normalized relative to that obtained with vehicle (0.2% DMSO, 0.8% ethanol) and plotted against compound concentration.

[2] = system: C. glabrata strains (WT, pdr1∆ or PDR1 rescue); experiment: Growth assays to assess compound efflux; assay type: cell-based; conditions: for growth relative to Solvent = 100 (Figure S10B): compound 50 µM, three replicates
Method: Cells from a single colony were diluted in 0.85% NaCl before being counted using a Neubauer chamber. […] The effect of fluconazole was tested by titration on these strains under similar conditions.

[3] = system: humanized C. albicans strains (both Bdf1 BDs replaced by Brd4 BDs); experiment: Growth in liquid media, humanized C. albicans; assay type: cell-based; conditions: Candida albicans, read-out: EC50 (μM), C. albicans (hum)
Method: (§1) Strains were presented in Table S8 (Supporting Information). Cells from a single colony were diluted in 0.85% NaCl before being counted using a Neubauer chamber. They were diluted to a final concentration of 6500 cells mL^−1 per well for all clinical strains of C. albicans and C. glabrata; 65 000 cells mL^−1 per well for C. auris; 13 500 cells mL^−1 per well for C. parapsilosis; 3375 cells mL^−1 per well for C. krusei and 1687.5 cells mL^−1 per well for C. tropicalis, in a sterile 96‐well plate. Cells were then grown in SC medium with or without chemical compounds at 30 °C with regular shaking. The significance of growth defects was assessed using Holm‐Sidak method by GraphPad Prism 10.

[4] = system: C. albicans expressing humanized Bdf1; experiment: Galleria fungal infection model, humanized strain; assay type: in vivo, Galleria mellonella; parameters: key to survival event of one larva (1 = death 0 = no death): 1 = death; 0 = no death; conditions: for survival event of one larva (1 = death 0 = no death): Bdf1-hBD* strain
Method: (§2) Galleria mellonella larvae were purchased from Decathlon (La Tronche, France). They were selected in the late larval stages weighing between 300 and 400 mg. Groups of 10 larvae were injected into the right or left last pro‐leg with 10 µl of either PBS, C. albicans suspensions or antifungal drug using an insulin syringe (BDUltra‐Fine 0.3 ml). C. albicans suspensions of the WT and humanized Bdf1 strains were adjusted to 10^6 cells larva^−1. Antifungal drugs (anidulafungin 5 mg kg^−1 or I‐BET726 66 or 44 mg kg^−1) were injected once 30 min before fungal infection. An infected control group received the C. albicans inoculum and the solvent of the drug. A non‐infected control group received only PBS. After inoculation, larvae were placed in Petri dishes and incubated in the dark at 37 °C. The larvae were monitored for 5 days, and survival outcome was determined. For experiments performed at the lower (44 mg kg^−1) dose of IBET‐726, the difference in protection against infection with humanized versus WT C. albicans strains was more evident using the survival data at 40 h rather than at 100 h post‐infection. Larvae were considered dead when no response was observed following touch. All experiments were performed at least 3 times independently. The significance of survival was assessed by a Log‐rank (Mantel‐Cox) test in GraphPad Prism 10.

C. krusei = experiment: Growth in liquid media; assay type: cell-based; conditions: Fig 5C
Method: as §1

C. auris = experiment: Growth in liquid media; assay type: cell-based; conditions: Fig 5C; for Growth (%): C. auris
Method: as §1

C. tropicalis = experiment: Growth in liquid media; assay type: cell-based; conditions: Fig 5C; for Growth (%): C. tropicalis
Method: as §1

[5] = system: C. albicans expressing WT Bdf1; experiment: Galleria fungal infection model, WT strain; assay type: in vivo, Galleria mellonella; parameters: key to survival event of one larva (1 = death 0 = no death): 1 = death; 0 = no death
Method: as §2

SMILES: Cc1ccc(-c2nnc(C)c(NCc3ccc(C)o3)n2)cc1 [Compound 24c, 6‐methyl‐N‐((5‐methylfuran‐2‐yl)methyl)‐3‐(p‐tolyl)‐1,2,4‐triazin‐5‐amine]
- cytotoxicity toward IMR90 cells (MTT) [1]: modest cytotoxicity
- activity against PDR1 deletion strain versus WT/rescue ([2]; 50 µM (I-BET726 1 µM), 20 h): unaffected
- growth relative to Solvent = 100 (Figure S10B) ([2]; PDR1 Rescue): 76.2272 and 100 and 72.1057
- growth relative to Solvent = 100 (Figure S10B) ([2]; WT): 69.2689 and 72.9849 and 92.6631
- growth relative to Solvent = 100 (Figure S10B) ([2]; pdr1∆): 52.2261 and 60.5623 and 93.6717

SMILES: CC(=O)N1c2ccc(-c3ccc(C(=O)O)cc3)cc2C(Nc2ccc(Cl)cc2)CC1C (stereo not shown) [I-BET726]
- EC50 [3]: 0.035 ± 0.003 µM
- protection against infection ([4]; 44 mg kg^−1, humanized strain, p = 0.0115, Mantel‐Cox test): significant protection
- survival of infected larvae ([4]; 66 mg kg^−1, injected once 30 min before infection, humanized strain): ≈ 100 h
- survival event of one larva (1 = death 0 = no death) ([4]; Figure 6C, Time 8 hours): 1
- survival event of one larva (1 = death 0 = no death) ([4]; Figure 6C, Time 33 hours): 1
- survival event of one larva (1 = death 0 = no death) ([4]; Figure 6C, Time 57 hours): 1
- survival event of one larva (1 = death 0 = no death) ([4]; Figure 6C, Time 70 hours): 1
- survival event of one larva (1 = death 0 = no death) ([4]; Figure 6D, Time 27 hours): 1
- survival event of one larva (1 = death 0 = no death) ([4]; Figure 6D, Time 41 hours): 1 and 0
- Growth (%) (C. krusei; 1.5625 µM): 97% and 93%
- Growth (%) (C. krusei; 3.125 µM): 102% and 92% and 91%
- Growth (%) (C. krusei; 25 µM): 103% and 86% and 91%
- Growth (%) (C. auris; 1.5625 µM): 91% and 92% and 90%
- Growth (%) (C. auris; 3.125 µM): 85% and 86% and 87%
- Growth (%) (C. auris; 25 µM): 73% and 79%
- EC50 (C. auris; Candidozyma auris): > 50 µM
- Growth (%) (C. tropicalis; 1.5625 µM): 85% and 87% and 84%
- Growth (%) (C. tropicalis; 3.125 µM): 76% and 75%
- Growth (%) (C. tropicalis; 25 µM): 31% and 40% and 34%
- EC50 (C. tropicalis; Candida tropicalis): 8.8 ± 1.4 µM
- protection against infection ([5]; 44 mg kg^−1): not significant
- survival of infected larvae ([5]; 66 mg kg^−1, injected once 30 min before infection): ≈ 100 h
- survival event of one larva (1 = death 0 = no death) ([5]; Figure 6B, Time 10 hours): 1
- survival event of one larva (1 = death 0 = no death) ([5]; Figure 6B, Time 35 hours): 1
- survival event of one larva (1 = death 0 = no death) ([5]; Figure 6B, Time 50 hours): 1
- survival event of one larva (1 = death 0 = no death) ([5]; Figure 6B, Time 73 hours): 1
- survival event of one larva (1 = death 0 = no death) ([5]; Figure 6D, Time 17 hours): 1
- survival event of one larva (1 = death 0 = no death) ([5]; Figure 6D, Time 23 hours): 1
- survival event of one larva (1 = death 0 = no death) ([5]; Figure 6D, Time 41 hours): 1 and 0
